Results from US7851637B2, “Compounds and methods for inhibiting the interaction of BCL proteins with binding partners” (Infinity Pharmaceuticals, Inc., priority 2004, dated 2010).

Legend:
Bcl-2 = Bcl-2 (Homo sapiens, UniProt P10415); assay: Bcl-2 binding affinity analysis (fluorescence polarization binding assay)
From the text: (§1) Bcl-2 and Bcl-xL binding can be determined using a variety of known methods. One such assay is a sensitive and quantitative in vitro binding assay using fluorescence polarization (FP) described by Wang, J. -L.; Zhang, Z -J.; Choksi, S.; Sjam. S.; Lu, Z.; Croce, C. M.; Alnenri, E. S.; Komgold, R.; Huang, Z. Cell permeable Bcl-2 binding peptides: a chemical approach to apoptosis induction in tumor cells. Cancer Res. 2000, 60, 1498-1502).
(§2) Bcl-2 and Bcl-xL binding affinity analysis data is presented below for various compounds of the invention.

Bcl-xL = Bcl-xL (Homo sapiens, UniProt Q07817); assay: Bcl-xL binding affinity analysis (fluorescence polarization binding assay); design: scale not given here
Bcl-xL, sequence (Q07817 whole entry): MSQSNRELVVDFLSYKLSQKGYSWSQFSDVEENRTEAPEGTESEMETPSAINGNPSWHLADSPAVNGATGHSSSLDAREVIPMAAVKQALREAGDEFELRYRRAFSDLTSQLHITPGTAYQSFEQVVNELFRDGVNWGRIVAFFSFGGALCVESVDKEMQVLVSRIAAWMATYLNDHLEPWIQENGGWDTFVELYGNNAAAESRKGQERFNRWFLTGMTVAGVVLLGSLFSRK
From the text: as §1, §2

Bcl-2, sequence (P10415 whole entry): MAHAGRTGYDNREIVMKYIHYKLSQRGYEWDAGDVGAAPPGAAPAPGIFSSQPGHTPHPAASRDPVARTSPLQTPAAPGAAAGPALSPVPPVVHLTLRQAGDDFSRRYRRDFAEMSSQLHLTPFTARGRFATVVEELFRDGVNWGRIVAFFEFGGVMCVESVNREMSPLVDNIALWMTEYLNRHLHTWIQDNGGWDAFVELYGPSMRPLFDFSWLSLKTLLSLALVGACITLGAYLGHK

Row | Compound | Ki (Bcl-2) [nM] | Bcl-XL binding affinity Ki (Bcl-xL)
1 | C[C@@H]1[C@@H](NC(=O)[C@@H]2[C@H]([C@H](C)O)[C@H](CO)ON2Cc2cccc(-c3ccc(S(=O)(=O)N(C)C)cc3)c2)C[C@H]2C[C@@H]1C2(C)C [Compound 130] | < 800 | ♯♯
2 | C[C@@H]1[C@@H](NC(=O)[C@@H]2[C@H]([C@H](C)O)[C@H](CO)ON2Cc2cccc(-c3cccc(C(=O)NCCN(CCO)CCO)c3)c2)C[C@H]2C[C@@H]1C2(C)C [Compound 131] | < 800 | ♯
3 | C[C@@H]1[C@@H](NC(=O)[C@@H]2[C@H]([C@H](C)O)[C@H](CO)ON2Cc2cccc(-c3cccc(C(=O)NCCN4CCOCC4)c3)c2)C[C@H]2C[C@@H]1C2(C)C [Compound 132] | < 800 | ♯♯
4 | C[C@@H]1[C@@H](NC(=O)[C@@H]2[C@H]([C@H](C)O)[C@H](CO)ON2Cc2cccc(-c3ccc4c(=O)n(C)n(C)c(=O)c4c3)c2)C[C@H]2C[C@@H]1C2(C)C [Compound 133] | < 800 | ♯
5 | C[C@@H]1[C@@H](NC(=O)[C@@H]2[C@H]([C@H](C)O)[C@H](CO)ON2Cc2cccc(-c3ccc(C(N)=O)cc3)c2)C[C@H]2C[C@@H]1C2(C)C [Compound 134] | < 800 | ♯
6 | CCCNC(=O)c1cccc(-c2cccc(CN3O[C@@H](CO)[C@@H]([C@H](C)O)[C@H]3C(=O)N[C@H]3C[C@H]4C[C@@H]([C@@H]3C)C4(C)C)c2)c1 [Compound 135] | < 800 | ♯♯
7 | C[C@@H]1[C@@H](NC(=O)[C@@H]2[C@H]([C@H](C)O)[C@H](CO)ON2Cc2cccc(-c3ccc(C(=O)N(C)C)c([N+](=O)[O-])c3)c2)C[C@H]2C[C@@H]1C2(C)C [Compound 136] | < 800 | ♯
8 | C[C@@H]1[C@@H](NC(=O)[C@@H]2[C@H]([C@H](C)O)[C@H](CO)ON2Cc2cccc(-c3cccc(C(=O)N[C@@H]4CCN(C)C4)c3)c2)C[C@H]2C[C@@H]1C2(C)C [Compound 137] | < 800 | ♯
9 | C[C@@H]1[C@@H](NC(=O)[C@@H]2[C@H]([C@H](C)O)[C@H](CO)ON2Cc2cccc(-c3cccc(C(=O)NCC4CC4)c3)c2)C[C@H]2C[C@@H]1C2(C)C [Compound 145] | < 800 | ♯♯
10 | CC(=O)NCCNC(=O)c1cccc(-c2cccc(CN3O[C@@H](CO)[C@@H]([C@H](C)O)[C@H]3C(=O)N[C@H]3C[C@H]4C[C@@H]([C@@H]3C)C4(C)C)c2)c1 [Compound 146] | < 800 | ♯
11 | C[C@@H]1[C@@H](NC(=O)[C@@H]2[C@H]([C@H](C)O)[C@H](CO)ON2Cc2cccc(-c3cccc(O)c3)c2)C[C@H]2C[C@@H]1C2(C)C [Compound 147] | < 800 | ♯♯
12 | C[C@@H]1[C@@H](NC(=O)[C@@H]2[C@H]([C@H](C)O)[C@H](CO)ON2Cc2cccc(-c3cccc(C(=O)N(C)CCCN(C)C)c3)c2)C[C@H]2C[C@@H]1C2(C)C [Compound 148] | < 800 | ♯
13 | Cc1cc(-c2cccc(CN3O[C@@H](CO)[C@@H]([C@H](C)O)[C@H]3C(=O)N[C@H]3C[C@H]4C[C@@H]([C@@H]3C)C4(C)C)c2)ccc1C(=O)N(C)C [Compound 150] | < 800 | ♯♯
14 | CC(C)CNC(=O)c1cccc(-c2cccc(CN3O[C@@H](CO)[C@@H]([C@H](C)O)[C@H]3C(=O)N[C@H]3C[C@H]4C[C@@H]([C@@H]3C)C4(C)C)c2)c1 [Compound 151] | < 800 | ♯♯
15 | C[C@@H]1[C@@H](NC(=O)[C@@H]2[C@H]([C@H](C)O)[C@H](CO)ON2Cc2cccc(-c3cccc(C(=O)N4CC[C@@H](N(C)C)C4)c3)c2)C[C@H]2C[C@@H]1C2(C)C [Compound 152] | < 800 | ♯♯
16 | COCCNC(=O)c1cccc(-c2cccc(CN3O[C@@H](CO)[C@@H]([C@H](C)O)[C@H]3C(=O)N[C@H]3C[C@H]4C[C@@H]([C@@H]3C)C4(C)C)c2)c1 [Compound 153] | < 800 | ♯
17 | C[C@@H]1[C@@H](NC(=O)[C@@H]2[C@H]([C@H](C)O)[C@H](CO)ON2Cc2cccc(-c3cccc(C(=O)NCCCNC(=O)OC(C)(C)C)c3)c2)C[C@H]2C[C@@H]1C2(C)C [Compound 154] | < 800 | ♯♯
18 | CCN1CCC[C@H]1CNC(=O)c1cccc(-c2cccc(CN3O[C@@H](CO)[C@@H]([C@H](C)O)[C@H]3C(=O)N[C@H]3C[C@H]4C[C@@H]([C@@H]3C)C4(C)C)c2OC)c1 [Compound 156] | < 800 | ♯
19 | COc1c(CN2O[C@@H](CO)[C@@H]([C@H](C)O)[C@H]2C(=O)N[C@H]2C[C@H]3C[C@@H]([C@@H]2C)C3(C)C)cccc1-c1cccc(C(=O)NCCN(C)C)c1 [Compound 165] | < 800 | ♯
20 | COc1c(CN2O[C@@H](CO)[C@@H]([C@H](C)O)[C@H]2C(=O)N[C@H]2C[C@H]3C[C@@H]([C@@H]2C)C3(C)C)cccc1-c1ccc(C(=O)N(C)C)cc1 [Compound 174] | < 800 | ♯
21 | C[C@H](O)[C@@H]1[C@H](CO)ON(Cc2cccc(-c3cccc(NS(C)(=O)=O)c3)c2)[C@@H]1C(=O)NC1C[C@H]2C[C@@H]([C@@H]1C)C2(C)C (stereo partly shown) [Compound 181] | < 800 | ♯♯
22 | CC(=O)Nc1cccc(-c2cccc(CN3O[C@@H](CO)[C@@H]([C@H](C)O)[C@H]3C(=O)NC3C[C@H]4C[C@@H]([C@@H]3C)C4(C)C)c2)c1 (stereo partly shown) [Compound 183] | < 800 | ♯♯
23 | C[C@@H]1[C@@H](NC(=O)[C@@H]2[C@H]([C@H](C)O)[C@H](CO)ON2Cc2cccc(-c3ccc(C(=O)N(CCN(C)C)Cc4ccccc4)cc3)c2)C[C@H]2C[C@@H]1C2(C)C [Compound 185] | < 800 | ♯
24 | CCN(CC)CCN(CCN(CC)CC)C(=O)c1ccc(-c2cccc(CN3O[C@@H](CO)[C@@H]([C@H](C)O)[C@H]3C(=O)N[C@H]3C[C@H]4C[C@@H]([C@@H]3C)C4(C)C)c2)cc1 [Compound 188] | < 800 | ♯
25 | C[C@H](O)[C@@H]1[C@H](CO)ON(Cc2cccc(CN(CCN(C)C)CC3CCCCC3)c2)[C@@H]1C(=O)NC1C[C@H]2C[C@@H]([C@@H]1C)C2(C)C (stereo partly shown) [Compound 190] | < 800 | ♯
26 | COc1c(CN(CCN(C)C)Cc2ccccc2)cccc1CN1O[C@@H](CO)[C@@H]([C@H](C)O)[C@H]1C(=O)NC1C[C@H]2C[C@@H]([C@@H]1C)C2(C)C (stereo partly shown) [Compound 197] | < 800 | ♯
27 | C[C@@H]1[C@@H](NC(=O)[C@@H]2[C@H]([C@H](C)O)[C@H](CO)ON2Cc2cccc(-c3cccc(S(C)(=O)=O)c3)c2)C[C@H]2C[C@@H]1C2(C)C [Compound 200] | < 800 | ♯
28 | CSc1cccc(-c2cccc(CN3O[C@@H](CO)[C@@H]([C@H](C)O)[C@H]3C(=O)N[C@H]3C[C@H]4C[C@@H]([C@@H]3C)C4(C)C)c2)c1 [Compound 201] | < 800 | ♯
29 | C[C@@H]1[C@@H](NC(=O)[C@@H]2[C@H]([C@H](C)O)[C@H](CO)ON2Cc2cccc(-c3cccc([S+](C)[O-])c3)c2)C[C@H]2C[C@@H]1C2(C)C (stereo partly shown) [Compound 202] | < 800 | ♯
